Results published in patent US20240043420A1, “7-AZAINDOLE COMPOUNDS FOR INHIBITION OF BCR-ABL TYROSINE KINASES” (EnLiven Therapeutics, Inc., priority 2020, published 2024).
Like-named read-outs stand apart in the source and are kept apart here.

Tests used:
[1] = target: T1, ABL1 (Homo sapiens, UniProt P00519); assay: Luminescence-based ABL kinase assay (ADP-Glo, 300 μM ATP); type: biochemical
T1 construct: purchased Carna Biosciences
Description: (§1) Kinase activity of ABL1 was measured using the ADP-Glo system (Promega), which measures formation of ADP using a luminescence-based method. Compounds were serially diluted in DMSO. 20 nL of compound or DMSO only (high control, HC) were added to a 384-well plate (OptiPlate-384, PerkinElmer) using an Echo550 liquid handler (Labcyte). 15 μL of kinase solution (10 mM MgCl2, 0.01% Brij-35, 2 mM DTT, 0.05% BSA, 1 mM EGTA, 50 mM HEPES pH 7.5, and 3.325 nM ABL1 [Carna Biosciences]) were added to each well of the 384-well plate containing the compounds. No enzyme control wells were included (low control, LC). The plate was incubated at room temperature for 30 minutes. 5 μL of a second solution containing 10 mM MgCl2, 0.01% Brij-35, 2 mM DTT, 0.05% BSA, 1 mM EGTA, 50 mM HEPES pH 7.5, 6 μM Peptide 2 (Perkin Elmer, Cat No 760346), and 1.2 mM ATP were added to each well to start the kinase reaction. The plate was incubated for 90 minutes at room temperature. 20 μL of ADP-Glo reagent (Promega) were then added to each well and the plate was incubated for 40 minutes at room temperature. 40 μL of kinase detection reagent (Promega) was added to each well and the plate was incubated for an additional 45 minutes at room temperature. During this step, ADP was converted to ATP, a substrate for luciferase, to produce luminescence signal. Luminescence was measured on an Envision plate reader (Perkin Elmer). Luminescence signal positively correlates with kinase activity. The percent kinase activity was calculated as follows: percent kinase activity=100×(Lumsample−LumLC)/(LumHC−LumLC). As noted above, DMSO only and no enzyme wells were used as high and low controls, respectively. IC50 values were calculated using the XLFit software.

[2] = test system: HL60 cells; assay: HL60 cell proliferation assay (CellTiter-Glo); type: cell-based; details: CellTiter-Glo viability, read-out: Cell Line (IC50, nM) HL60
Description: (§2) K562 and HL60 cells, cultured in Iscove's Modified Dulbecco's Media (IMDM) supplemented with 10% FBS, were harvested at 50-80% confluency and plated at 2,000 cells per well (K562) or 1,500 cells per well (HL60) in 384-well tissue culture plates. A subset of wells contained media only (low control, LC). Compounds were serially diluted in DMSO. 40 nL of compound or DMSO only (high control, HC) were added to each well using an Echo 550 liquid handler (Labcyte). The plates were placed in a 37° C. incubator with 5% CO2 for 72 hours. Cell viability was measured using a CellTiter-Glo luminescent cell viability assay (Promega), which allows for relative quantification of metabolically active cells by luminescence-based measurements of intracellular ATP concentrations. Briefly, plates were removed from the incubator and equilibrated for 15 minutes at room temperature prior to the addition of 40 μL of CellTiter-Glo reagent. Plates were then incubated for 30 minutes at room temperature. Luminescence was measured using an EnSpire plate reader (Perkin Elmer). As noted above, luminescence values from wells with DMSO only or media without cells were used as high and low controls (HC and LC), respectively. Normalized percent viability was calculated as follows: percent viability=100×(Lumsample−LumLC)/(LumHC−LumLC).

[3] = target: ABL1 (T315I) (Homo sapiens, UniProt P00519, T315I); assay: Luminescence-based ABL kinase assay (ADP-Glo, 300 μM ATP), T315I mutant; type: biochemical
Description: as §1

[4] = test system: K562 cells; assay: K562 cell proliferation assay (CellTiter-Glo); type: cell-based; details: CellTiter-Glo viability, read-out: Cell Line (IC50, nM) K562
Description: as §2

Row | Compound | IC50 [1] [nM] | IC50 ([2]; Homo sapiens, HL-60, 72 h) [nM] | IC50 [3] [nM] | IC50 ([4]; Homo sapiens, K562, 72 h) [nM] | IC50 ([2]; 72 hours) [nM] | IC50 ([4]; 72 hours) [nM]
1 | COc1nccc(OC2CC2)c1-c1c[nH]c2nc(NC(=O)C3CC3OCCN3CCC3)ccc12 (single isomer, unassigned) [Example S221, Enantiomer 1, 2-(2-(azetidin-1-yl)ethoxy)-N-(3-(4-cyclopropoxy-2-methoxypyridin-3-yl)-1H-pyrrolo[2,3-b]pyridin-6-yl)cyclopropane-1-carboxamide] |  | 6590 |  |  |  | 11.1
2 | COc1ccccc1-c1c[nH]c2nc(NC(=O)C3CC3)ccc12 [Compound 1, N-(3-(2-methoxyphenyl)-1H-pyrrolo[2,3-b]pyridin-6-yl)cyclopropanecarboxamide] | 37.9 | > 10000 | 11.3 | 101 |  | 
3 | COc1ccccc1-c1c[nH]c2nc(NC(=O)[C@H]3C[C@H]3F)ccc12 [Compound 2, (1R,2R)-2-fluoro-N-(3-(2-methoxyphenyl)-1H-pyrrolo[2,3-b]pyridin-6-yl)cyclopropane-1-carboxamide] | 22.2 | > 10000 | 9.96 | 176 |  | 
4 | O=C(Nc1ccc2c(-c3ccccc3Cl)c[nH]c2n1)C1CC1 [Compound 6, N-[3-(2-chlorophenyl)-1H-pyrrolo[2,3-b]pyridin-6-yl]cyclopropanecarboxamide] | 123 | > 10000 | 65.6 | 452 |  | 
5 | O=C(Nc1ccc2c(-c3cccc(O)c3)c[nH]c2n1)C1CC1 [Compound 13, N-[3-(3-hydroxyphenyl)-1H-pyrrolo[2,3-b]pyridin-6-yl]cyclopropanecarboxamide] | 96.6 | 4450 | 9.74 | 202 |  | 
6 | O=C(Nc1ccc2c(-c3ccc4[nH]cnc4c3)c[nH]c2n1)C1CC1 [Compound 19, N-[3-(1H-1,3-benzodiazol-5-yl)-1H-pyrrolo[2,3-b]pyridin-6-yl]cyclopropanecarboxamide] | 11.2 | 287 | 4.57 | 147 |  | 
7 | O=C(Nc1ccc2c(-c3ccc4[nH]ncc4c3)c[nH]c2n1)C1CC1 [Compound 21, N-(3-(1H-indazol-5-yl)-1H-pyrrolo[2,3-b]pyridin-6-yl)cyclopropanecarboxamide] | 94.8 | 1570 | 8.74 | 286 |  | 
8 | COc1cccc(F)c1-c1c[nH]c2nc(NC(=O)[C@H]3C[C@H]3F)ccc12 [Compound 22, (1R,2R)-2-fluoro-N-[3-(2-fluoro-6-methoxyphenyl)-1H-pyrrolo[2,3-b]pyridin-6-yl]cyclopropane-1-carboxamide] | 78.9 | > 10000 | 7.17 | 421 |  | 
9 | Cc1nc2cc(-c3c[nH]c4nc(NC(=O)C5CC5)ccc34)ccc2[nH]1 [Compound 29, N-(3-(2-methyl-1H-benzo[d]imidazol-5-yl)-1H-pyrrolo[2,3-b]pyridin-6-yl)cyclopropanecarboxamide] | 41.8 | 470 | 10.5 | 454 |  | 

The next lines start with the values.

Row | IC50 [1] [nM] | IC50 ([2]; Homo sapiens, HL-60, 72 h) [nM] | IC50 [3] [nM] | IC50 ([4]; Homo sapiens, K562, 72 h) [nM] | IC50 ([2]; 72 hours) [nM] | IC50 ([4]; 72 hours) [nM] | Compound
10 | 106 | > 10000 | 26.8 | 654 |  |  | COc1ccccc1-c1c[nH]c2nc(NC(=O)[C@@H]3C[C@@H]3CN3CCN(C)CC3)ccc12 (racemic) [Compound 41, cis-N-[3-(2-methoxyphenyl)-1H-pyrrolo[2,3-b]pyridin-6-yl]-2-[(4-methylpiperazin-1-yl)methyl]cyclopropane-1-carboxamide]
11 | 109 | > 10000 | 19.9 | 489 |  |  | COc1ccccc1-c1c[nH]c2nc(NC(=O)[C@@H]3C[C@@H]3CCO)ccc12 (relative stereo) [Compound 105, cis-2-(2-hydroxyethyl)-N-(3-(2-methoxyphenyl)-1H-pyrrolo[2,3-b]pyridin-6-yl)cyclopropanecarboxamide]
12 | 78.1 | > 10000 | 26.1 | 275 |  |  | COc1ccccc1-c1c[nH]c2nc(NC(=O)[C@H]3C[C@H]3C#N)ccc12 (relative stereo) [Compound 106, cis-2-cyano-N-[3-(2-methoxyphenyl)-1H-pyrrolo[2,3-b]pyridin-6-yl]cyclopropane-1-carboxamide]
13 | 78.6 | > 10000 | 17.8 | 419 |  |  | COc1ccccc1-c1c[nH]c2nc(NC(=O)[C@H]3C[C@@H]3CO)ccc12 (relative stereo) [Compound 108, trans-2-(hydroxymethyl)-N-(3-(2-methoxyphenyl)-1H-pyrrolo[2,3-b]pyridin-6-yl)cyclopropane-1-carboxamide]
14 |  |  |  |  | > 10000 | 57.3 | COc1nccc(OC2CC2)c1-c1c[nH]c2nc(NC(=O)C3CC3OCCN(C)C)ccc12 (single isomer, unassigned) [Example S220, Enantiomer 2, N-(3-(4-cyclopropoxy-2-methoxypyridin-3-yl)-1H-pyrrolo[2,3-b]pyridin-6-yl)-2-(2-(dimethylamino)ethoxy)cyclopropane-1-carboxamide]
15 |  |  |  |  | 8660 | 39.7 | COc1nccc(OC2CC2)c1-c1c[nH]c2nc(NC(=O)C3CC3OCCN3CCC3)ccc12 (single isomer, unassigned) [Example S221, Enantiomer 2, 2-(2-(azetidin-1-yl)ethoxy)-N-(3-(4-cyclopropoxy-2-methoxypyridin-3-yl)-1H-pyrrolo[2,3-b]pyridin-6-yl)cyclopropane-1-carboxamide]
16 | 113 | > 10000 | 32.3 | 223 |  |  | Cc1ccccc1-c1c[nH]c2nc(NC(=O)C3CC3)ccc12 [Compound 4, N-[3-(2-methylphenyl)-1H-pyrrolo[2,3-b]pyridin-6-yl]cyclopropanecarboxamide]
17 | 119 | > 10000 | 32.9 | 713 |  |  | O=C(Nc1ccc2c(-c3ccccc3F)c[nH]c2n1)C1CC1 [Compound 5, N-[3-(2-fluorophenyl)-1H-pyrrolo[2,3-b]pyridin-6-yl]cyclopropanecarboxamide]
18 | 91.2 | > 10000 | 52.8 | 416 |  |  | COc1ncccc1-c1c[nH]c2nc(NC(=O)C3CC3)ccc12 [Compound 14, N-[3-(2-methoxypyridin-3-yl)-1H-pyrrolo[2,3-b]pyridin-6-yl]cyclopropanecarboxamide]
19 | 55.1 | > 10000 | 28.6 | 229 |  |  | COc1cc2cc[nH]c2cc1-c1c[nH]c2nc(NC(=O)C3CC3)ccc12 [Compound 17, N-[3-(5-methoxy-1H-indol-6-yl)-1H-pyrrolo[2,3-b]pyridin-6-yl]cyclopropanecarboxamide]
20 | 7.58 | 385 | 2.84 | 62.1 |  |  | O=C(Nc1ccc2c(-c3ccc4[nH]cnc4c3)c[nH]c2n1)[C@@H]1C[C@@H]1F [Compound 28, (1S,2S)—N-[3-(1H-1,3-benzodiazol-5-yl)-1H-pyrrolo[2,3-b]pyridin-6-yl]-2-fluorocyclopropane-1-carboxamide]
21 |  | > 10000 |  | 52.7 |  |  | COc1cccc(OC)c1-c1c[nH]c2nc(NC(=O)C3CC3)ccc12 [Compound 45, N-[3-(2,6-dimethoxyphenyl)-1H-pyrrolo[2,3-b]pyridin-6-yl]cyclopropanecarboxamide]
22 |  | > 10000 |  | 32 |  |  | COc1nc2[nH]ncc2cc1-c1c[nH]c2nc(NC(=O)[C@@H]3C[C@@H]3F)ccc12 [Compound 144, (1S,2S)-2-fluoro-N-(3-[6-methoxy-1H-pyrazolo[3,4-b]pyridin-5-yl]-1H-pyrrolo[2,3-b]pyridin-6-yl)cyclopropane-1-carboxamide]
